Experimental data: patent publication US20050112573A1, “Method of detecting toxic substance” (priority 2001, published 2005)

System: yeast genes (level of expressed mRNA)
Assay: DNA chip analysis of expressed mRNA of yeast genes after 2 h culture with a toxic chemical substance
Assay type: cell-based, Saccharomyces cerevisiae S288C
In short: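 S. cerevisiae S288C grown at 25° C in YPD; toxicant added at log phase at growth-inhibitory, non-lethal levels for 2 h, untreated cells as control. Poly(A) mRNA reverse-transcribed with Cy3/Cy5-dUTP, hybridized to whole-genome chip at 65° C >12 h; value is fluorescence ratio versus untreated.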

C=CC=O [(14), acrolein]
level of expressed mRNA in the presence of chemical substance/in its absence (gene YAL012W): 0.9 | The level of expressed mRNA in the presence of chemical substance/absence: YAL014C (gene YAL014C): 1.8 | The level of expressed mRNA in the presence of chemical substance/absence: YAL017W (gene YAL017W): 1.1 | The level of expressed mRNA in the presence of chemical substance/absence: YAL018C (gene YAL018C): 1.0 | level of expressed mRNA in the presence of chemical substance/in its absence (gene YAL038W): 0.5 | level of expressed mRNA in the presence of chemical substance/in its absence (gene YAL044C): 1.4 | The level of expressed mRNA in the presence of chemical substance/absence: YAL049C (gene YAL049C): 2.0 | level of expressed mRNA in the presence of chemical substance/in its absence (gene YAL054C): 1.3 | The level of expressed mRNA in the presence of chemical substance/absence: YAR047C (gene YAR047C): 1.3 | The level of expressed mRNA in the presence of chemical substance/absence: YAR064W (gene YAR064W): 1.1 | level of expressed mRNA in the presence of chemical substance/in its absence (gene YAR071W): 1.1 | level of expressed mRNA in the presence of chemical substance/in its absence (gene YBL001C): 1.5 | The level of expressed mRNA in the presence of chemical substance/absence: YBL044W (gene YBL044W): 0.9 | The level of expressed mRNA in the presence of chemical substance/absence: YBL100C (gene YBL100C): 0.9 | The level of expressed mRNA in the presence of chemical substance/absence: YBR012C (gene YBR012C): 0.9 | The level of expressed mRNA in the presence of chemical substance/absence: YBR013C (gene YBR013C): 2.5 | level of expressed mRNA in the presence of chemical substance/in its absence (gene YBR014C): 1.2 | level of expressed mRNA in the presence of chemical substance/in its absence (gene YBR023C): 0.8 | level of expressed mRNA in the presence of chemical substance/in its absence (gene YBR029C): 0.9 | level of expressed mRNA in the presence of chemical substance/in its absence (gene YBR035C): 1.3 | level of expressed mRNA in the presence of chemical substance/in its absence (gene YBR050C): 1.3 | The level of expressed mRNA in the presence of chemical substance/absence: YBR051W (gene YBR051W): 1.0 | The level of expressed mRNA in the presence of chemical substance/absence: YBR063C (gene YBR063C): 1.7 | The level of expressed mRNA in the presence of chemical substance/absence: YBR066C (gene YBR066C): 1.1 | level of expressed mRNA in the presence of chemical substance/in its absence (gene YBR068C): 1.8 | level of expressed mRNA in the presence of chemical substance/in its absence (gene YBR111C): 1.6 | The level of expressed mRNA in the presence of chemical substance/absence: YBR124W (gene YBR124W): 1.0 | level of expressed mRNA in the presence of chemical substance/in its absence (gene YBR126C): 0.7 | The level of expressed mRNA in the presence of chemical substance/absence: YBR129C (gene YBR129C): 1.6 | level of expressed mRNA in the presence of chemical substance/in its absence (gene YBR145W): 2.2 | The level of expressed mRNA in the presence of chemical substance/absence: YBR162C (gene YBR162C): 0.5 | level of expressed mRNA in the presence of chemical substance/in its absence (gene YBR183W): 1.3 | level of expressed mRNA in the presence of chemical substance/in its absence (gene YBR222C): 0.5 | The level of expressed mRNA in the presence of chemical substance/absence: YBR255W (gene YBR255W): 1.1 | The level of expressed mRNA in the presence of chemical substance/absence: YBR281C (gene YBR281C): 0.9 | The level of expressed mRNA in the presence of chemical substance/absence: YBR287W (gene YBR287W): 0.8 | level of expressed mRNA in the presence of chemical substance/in its absence (gene YBR299W): 1.4 | level of expressed mRNA in the presence of chemical substance/in its absence (gene YCL009C): 0.7 | The level of expressed mRNA in the presence of chemical substance/absence: YCL044C (gene YCL044C): 1.0 | The level of expressed mRNA in the presence of chemical substance/absence: YCL056C (gene YCL056C): 2.2 | level of expressed mRNA in the presence of chemical substance/in its absence (gene YCL064C): 0.8 | The level of expressed mRNA in the presence of chemical substance/absence: YCR007C (gene YCR007C): 1.7 | level of expressed mRNA in the presence of chemical substance/in its absence (gene YCR037C): 0.8 | level of expressed mRNA in the presence of chemical substance/in its absence (gene YCR048W): 0.9 | level of expressed mRNA in the presence of chemical substance/in its absence (gene YCR098C): 1.1 | level of expressed mRNA in the presence of chemical substance/in its absence (gene YDL022W): 0.8 | The level of expressed mRNA in the presence of chemical substance/absence: YDL046W (gene YDL046W): 1.2 | The level of expressed mRNA in the presence of chemical substance/absence: YDL089W (gene YDL089W): 1.2 | The level of expressed mRNA in the presence of chemical substance/absence: YDL173W (gene YDL173W): 2.1 | The level of expressed mRNA in the presence of chemical substance/absence: YDL193W (gene YDL193W): 1.1 | The level of expressed mRNA in the presence of chemical substance/absence: YDL233W (gene YDL233W): 1.1 | level of expressed mRNA in the presence of chemical substance/in its absence (gene YDR009W): 1.5 | level of expressed mRNA in the presence of chemical substance/in its absence (gene YDR019C): 1.6 | The level of expressed mRNA in the presence of chemical substance/absence: YDR071C (gene YDR071C): 2.0 | The level of expressed mRNA in the presence of chemical substance/absence: YDR078C (gene YDR078C): 1.8 | The level of expressed mRNA in the presence of chemical substance/absence: YDR090C (gene YDR090C): 0.9 | The level of expressed mRNA in the presence of chemical substance/absence: YDR109C (gene YDR109C): 1.0 | The level of expressed mRNA in the presence of chemical substance/absence: YDR128W (gene YDR128W): 1.0 | The level of expressed mRNA in the presence of chemical substance/absence: YDR133C (gene YDR133C): 0.6 | The level of expressed mRNA in the presence of chemical substance/absence: YDR140W (gene YDR140W): 3.2 | The level of expressed mRNA in the presence of chemical substance/absence: YDR221W (gene YDR221W): 1.0 | The level of expressed mRNA in the presence of chemical substance/absence: YDR250C (gene YDR250C): 0.9 | The level of expressed mRNA in the presence of chemical substance/absence: YDR271C (gene YDR271C): 1.4 | The level of expressed mRNA in the presence of chemical substance/absence: YDR278C (gene YDR278C): 0.9 | The level of expressed mRNA in the presence of chemical substance/absence: YDR281C (gene YDR281C): 1.2 | The level of expressed mRNA in the presence of chemical substance/absence: YDR316W (gene YDR316W): 0.7 | The level of expressed mRNA in the presence of chemical substance/absence: YDR338C (gene YDR338C): 1.0 | The level of expressed mRNA in the presence of chemical substance/absence: YDR366C (gene YDR366C): 1.4 | level of expressed mRNA in the presence of chemical substance/in its absence (gene YDR380W): 0.6 | level of expressed mRNA in the presence of chemical substance/in its absence (gene YDR410C): 1.3 | The level of expressed mRNA in the presence of chemical substance/absence: YDR421W (gene YDR421W): 1.2 | The level of expressed mRNA in the presence of chemical substance/absence: YDR425W (gene YDR425W): 1.3 | The level of expressed mRNA in the presence of chemical substance/absence: YDR485C (gene YDR485C): 1.1 | level of expressed mRNA in the presence of chemical substance/in its absence (gene YDR487C): 2.5 | level of expressed mRNA in the presence of chemical substance/in its absence (gene YDR502C): 0.8 | The level of expressed mRNA in the presence of chemical substance/absence: YDR504C (gene YDR504C): 1.3 | level of expressed mRNA in the presence of chemical substance/in its absence (gene YEL011W): 1.5 | level of expressed mRNA in the presence of chemical substance/in its absence (gene YEL020C): 1.0 | The level of expressed mRNA in the presence of chemical substance/absence: YEL044W (gene YEL044W): 0.6 | level of expressed mRNA in the presence of chemical substance/in its absence (gene YER026C): 1.1 | level of expressed mRNA in the presence of chemical substance/in its absence (gene YER069W): 1.3 | The level of expressed mRNA in the presence of chemical substance/absence: YER092W (gene YER092W): 1.2 | The level of expressed mRNA in the presence of chemical substance/absence: YER182W (gene YER182W): 1.9 | The level of expressed mRNA in the presence of chemical substance/absence: YFL042C (gene YFL042C): 1.2 | level of expressed mRNA in the presence of chemical substance/in its absence (gene YFR015C): 3.1 | The level of expressed mRNA in the presence of chemical substance/absence: YFR026C (gene YFR026C): 1.0 | The level of expressed mRNA in the presence of chemical substance/absence: YFR056C (gene YFR056C): 0.6 | level of expressed mRNA in the presence of chemical substance/in its absence (gene YGL001C): 1.1 | level of expressed mRNA in the presence of chemical substance/in its absence (gene YGL022W): 0.5 | level of expressed mRNA in the presence of chemical substance/in its absence (gene YGL039W): 0.9 | The level of expressed mRNA in the presence of chemical substance/absence: YGL041C (gene YGL041C): 1.2 | The level of expressed mRNA in the presence of chemical substance/absence: YGL045W (gene YGL045W): 1.1 | The level of expressed mRNA in the presence of chemical substance/absence: YGL057C (gene YGL057C): 1.5 | The level of expressed mRNA in the presence of chemical substance/absence: YGL088W (gene YGL088W): 1.4 | level of expressed mRNA in the presence of chemical substance/in its absence (gene YGL104C): 1.0 | level of expressed mRNA in the presence of chemical substance/in its absence (gene YGL134W): 1.1 | level of expressed mRNA in the presence of chemical substance/in its absence (gene YGL154C): 1.1 | The level of expressed mRNA in the presence of chemical substance/absence: YGL183C (gene YGL183C): 1.7 | level of expressed mRNA in the presence of chemical substance/in its absence (gene YGL209W): 1.6 | The level of expressed mRNA in the presence of chemical substance/absence: YGL223C (gene YGL223C): 0.9 | level of expressed mRNA in the presence of chemical substance/in its absence (gene YGL253W): 0.5 | The level of expressed mRNA in the presence of chemical substance/absence: YGR038W (gene YGR038W): 1.4 | level of expressed mRNA in the presence of chemical substance/in its absence (gene YGR060W): 0.8 | The level of expressed mRNA in the presence of chemical substance/absence: YGR139W (gene YGR139W): 0.9 | The level of expressed mRNA in the presence of chemical substance/absence: YGR156W (gene YGR156W): 1.6 | The level of expressed mRNA in the presence of chemical substance/absence: YGR198W (gene YGR198W): 0.8 | The level of expressed mRNA in the presence of chemical substance/absence: YGR210C (gene YGR210C): 0.8 | The level of expressed mRNA in the presence of chemical substance/absence: YGR211W (gene YGR211W): 0.4 | The level of expressed mRNA in the presence of chemical substance/absence: YGR237C (gene YGR237C): 0.6 | The level of expressed mRNA in the presence of chemical substance/absence: YGR243W (gene YGR243W): 1.9 | The level of expressed mRNA in the presence of chemical substance/absence: YGR250C (gene YGR250C): 1.3 | The level of expressed mRNA in the presence of chemical substance/absence: YGR266W (gene YGR266W): 0.8 | The level of expressed mRNA in the presence of chemical substance/absence: YGR277C (gene YGR277C): 1.5 | level of expressed mRNA in the presence of chemical substance/in its absence (gene YGR282C): 1.0
